Read-outs that look alike come from different tables or passages of the source.
Biological target: T1, F508delCFTR (Homo sapiens, UniProt P13569, DEL508-508)
T1 construct: expressed in transfected cells; host or cells: CFBE41o- human lung-derived epithelial cells (CFBE4lo-F508delCFTR-HRP), doxycycline-inducible
Experiment: Cell Surface Expression-Horse Radish Peroxidase (CSE-HRP) Assay;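 for Maximum % activity (with co-corrector): co-corrector and positive control are both the same reference corrector at 2 µM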;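 for Maximum % activity (without co-corrector): percent of the 2 µM on-plate positive control corrector response above DMSO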
Format: cell-based
Conditions: for Emax: read-out: Maximum % activity (without co-corrector)

[1] = test compound without co-corrector, read-out: EC50 (without co-corrector)
[2] = with co-corrector (2 μM of 3-[(2R,4R)-4-({[1-(2,2-difluoro-1,3-benzodioxol-5-yl)cyclopropyl]carbonyl}amino)-7-methoxy-3,4-dihydro-2H-chromen-2-yl]benzoic acid), read-out: EC50 (with co-corrector)
[3] = with co-corrector (2 μM), maximum at any tested concentration, normalized to on-plate positive control
[4] = without co-corrector, maximum at any tested concentration, normalized to on-plate positive control
[5] = test compound without co-corrector, maximum at any tested concentration, normalized to on-plate positive control
[6] = with co-corrector (2 μM of 3-[(2R,4R)-4-({[1-(2,2-difluoro-1,3-benzodioxol-5-yl)cyclopropyl]carbonyl}amino)-7-methoxy-3,4-dihydro-2H-chromen-2-yl]benzoic acid), maximum at any tested concentration, normalized to on-plate positive control
[7] = CSE-HRP, test compound without co-corrector, read-out: EC50 (without co-corrector)
[8] = CSE-HRP, with co-corrector (2 μM of 3-[(2R,4R)-4-({[1-(2,2-difluoro-1,3-benzodioxol-5-yl)cyclopropyl]carbonyl}amino)-7-methoxy-3,4-dihydro-2H-chromen-2-yl]benzoic acid), read-out: EC50 (with co-corrector)
[9] = CSE-HRP, with co-corrector (2 μM), maximum at any tested concentration, normalized to on-plate positive control
[10] = CSE-HRP, without co-corrector, maximum at any tested concentration, normalized to on-plate positive control

T1 sequence (P13569 with tags, fused parts or gaps DEL508-508): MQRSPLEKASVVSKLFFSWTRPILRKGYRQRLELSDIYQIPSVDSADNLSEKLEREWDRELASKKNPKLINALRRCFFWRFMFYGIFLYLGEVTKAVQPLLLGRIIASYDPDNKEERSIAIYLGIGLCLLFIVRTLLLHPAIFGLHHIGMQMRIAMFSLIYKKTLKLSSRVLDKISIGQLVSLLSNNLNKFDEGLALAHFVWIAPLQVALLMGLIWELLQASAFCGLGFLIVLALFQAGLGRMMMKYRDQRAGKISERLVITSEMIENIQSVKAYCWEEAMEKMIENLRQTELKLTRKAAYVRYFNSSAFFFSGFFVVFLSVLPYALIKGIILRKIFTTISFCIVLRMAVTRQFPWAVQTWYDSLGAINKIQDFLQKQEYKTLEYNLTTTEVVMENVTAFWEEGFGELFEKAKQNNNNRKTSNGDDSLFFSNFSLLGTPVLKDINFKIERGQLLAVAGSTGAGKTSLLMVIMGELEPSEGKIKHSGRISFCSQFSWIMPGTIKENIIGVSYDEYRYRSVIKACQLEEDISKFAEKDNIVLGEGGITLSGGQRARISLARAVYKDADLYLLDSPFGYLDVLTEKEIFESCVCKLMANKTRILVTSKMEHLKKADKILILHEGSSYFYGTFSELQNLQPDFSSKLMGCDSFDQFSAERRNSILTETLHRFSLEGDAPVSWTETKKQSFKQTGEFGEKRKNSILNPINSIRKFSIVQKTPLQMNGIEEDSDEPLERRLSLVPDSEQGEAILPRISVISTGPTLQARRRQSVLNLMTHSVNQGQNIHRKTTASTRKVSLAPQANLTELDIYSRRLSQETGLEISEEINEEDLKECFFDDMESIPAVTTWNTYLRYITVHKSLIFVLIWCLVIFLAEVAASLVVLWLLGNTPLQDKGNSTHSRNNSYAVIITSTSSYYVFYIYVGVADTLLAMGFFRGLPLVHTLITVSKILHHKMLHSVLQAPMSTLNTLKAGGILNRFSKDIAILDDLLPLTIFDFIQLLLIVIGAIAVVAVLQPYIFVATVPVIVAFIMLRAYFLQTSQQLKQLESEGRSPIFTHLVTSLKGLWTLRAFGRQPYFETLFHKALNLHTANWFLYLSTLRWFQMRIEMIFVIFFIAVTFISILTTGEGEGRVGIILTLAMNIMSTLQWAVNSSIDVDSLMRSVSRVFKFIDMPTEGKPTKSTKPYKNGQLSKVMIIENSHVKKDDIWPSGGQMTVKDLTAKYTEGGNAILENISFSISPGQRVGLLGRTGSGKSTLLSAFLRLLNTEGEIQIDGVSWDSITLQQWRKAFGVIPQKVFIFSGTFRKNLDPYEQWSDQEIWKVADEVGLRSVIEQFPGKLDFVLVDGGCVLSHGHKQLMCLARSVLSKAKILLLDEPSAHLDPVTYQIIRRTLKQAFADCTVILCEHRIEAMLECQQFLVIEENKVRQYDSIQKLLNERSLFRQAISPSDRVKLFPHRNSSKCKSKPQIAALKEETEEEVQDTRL

EC50 [1] [µM]	EC50 [2] [µM]	Maximum % activity (with co-corrector) [3]	Emax [4] [%]	SMILES	other results
1 to 10	1 to 10	+++ (≥350)	100 to 200	COc1ccc(C23CC(C2)C3)cc1CN[C@H]1[C@H](C(C)(C)C)[C@@H](C(=O)O)N(C(=O)OC(C)C)[C@H]1c1cccnc1OC [Example I-224]	
1 to 10	1 to 10			COc1ccc(C(C)(C)C)cc1CN[C@H]1[C@H](C(C)(C)C)[C@@H](C(=O)O)N(C(=O)C2Cc3ccccc3CO2)[C@H]1c1cccnc1N(C)C (single isomer, unassigned) [II-481]	Maximum % activity (without co-corrector) [5]: ++ (≥100 and <200); Maximum % activity (with co-corrector) [6]: +++ (≥350)
				COc1ccc(Cl)cc1CN[C@H]1[C@H](C(C)(C)C)[C@@H](C(=O)O)N(C(=O)C2CCCCC2)[C@H]1c1cccnc1C [II-95]	EC50 [7]: 1 to 10 µM; EC50 [8]: 1 to 10 µM; Maximum % activity (with co-corrector) [9]: +++ (≥350); Emax [10]: < 100%
< 1	< 1	+++ (≥350)		COc1ccc(C(C)(C)C)cc1CN[C@H]1[C@H](C(C)(C)C)[C@@H](C(=O)O)N(C(=O)C2CCCCC2C)[C@H]1c1ccccc1 (stereo partly shown) [III-195]	Emax [5]: > 200%
1 to 10	1 to 10	++ (≥150 and <350)		COc1ncc(C(F)(F)F)cc1CN[C@@H]1[C@@H](C(C)(C)C)[C@H](C(=O)O)N(C(=O)[C@@H]2CCCCO2)[C@@H]1c1ccccc1 [III-165]	Emax [5]: < 100%
1 to 10	1 to 10			COc1ccc(CN[C@@H]2[C@@H](C(C)(C)C)[C@H](C(=O)O)N(C(=O)OC(C)C)[C@@H]2c2ccccc2)c(OC)c1 (racemic) [III-91]	Emax [5]: < 100%; Maximum % activity (with co-corrector) [6]: ++ (≥150 and <350)
				COc1cc(C(C)(C)C)ccc1CN[C@H]1[C@H](C(C)(C)C)[C@@H](C(=O)O)N(C(=O)C2CCCCC2)[C@H]1c1ccccc1 [II-103]	EC50 [7]: 1 to 10 µM; EC50 [8]: 1 to 10 µM; Maximum % activity (with co-corrector) [9]: +++ (≥350); Emax [10]: 100 to 200%
				COc1ccc(C(F)(F)F)cc1CN[C@@H]1[C@@H](C(C)(C)C)[C@H](C(=O)O)N(C(=O)[C@@H](C)Oc2ccccc2)[C@@H]1c1ccccc1 (racemic) [II-66]	EC50 [7]: 1 to 10 µM; EC50 [8]: 1 to 10 µM; Maximum % activity (with co-corrector) [9]: ++ (≥150 and <350); Emax [10]: < 100%
				COc1ccc(C(C)(C)C)cc1CN[C@H]1[C@H](C(C)(C)C)[C@@H](C(=O)O)N(C(=O)CC2=CCCC2)[C@H]1c1ccccc1 [II-234]	EC50 [7]: 1 to 10 µM; EC50 [8]: 1 to 10 µM; Maximum % activity (with co-corrector) [9]: +++ (≥350); Emax [10]: > 200%
> 10	1 to 10			COc1cccc([C@H]2[C@@H](NCc3cc(C(F)(F)F)ccc3OC)[C@H](C(C)(C)C)[C@@H](C(=O)O)N2C(=O)C2(C)CCCOC2)n1 (relative stereo) [III-70]	Emax [5]: < 100%; Maximum % activity (with co-corrector) [6]: ++ (≥150 and <350)
				CC(C)c1ccccc1CN[C@H]1[C@H](C(C)(C)C)[C@@H](C(=O)O)N(C(=O)C2CCCCC2)[C@H]1c1ccccc1 [II-166]	EC50 [7]: < 1 µM; EC50 [8]: < 1 µM; Maximum % activity (with co-corrector) [9]: +++ (≥350); Emax [10]: 100 to 200%
1 to 10	< 1	+++ (≥350)	> 200	COc1ccc(C(F)(F)F)cc1CN[C@@H]1[C@@H](C(C)(C)C)[C@H](C(=O)O)N(C(=O)C2CCCCC2)[C@@H]1c1ccccc1N(C)C (racemic) [Example I-22]	
1 to 10	< 1	+++ (≥350)	> 200	COc1ncc(CC(C)C)cc1CN[C@H]1[C@H](C(C)(C)C)[C@@H](C(=O)O)N(C(=O)C2CCCCC2)[C@H]1c1ccccc1 [Example I-76]	
1 to 10	< 1	+++ (≥350)	> 200	COc1ccc(C2(C(F)(F)F)CC2)cc1CN[C@H]1[C@H](C(C)(C)C)[C@@H](C(=O)O)N(C(=O)OC(C)C)[C@H]1c1ccccc1 [Example I-141]	
> 10	> 10			CC(C)(C)[C@@H]1[C@@H](Nc2cc(C(F)(F)F)cc(=O)[nH]2)[C@@H](c2ccccc2)N(C(=O)C2CCCCC2)[C@H]1C(=O)O (racemic) [III-23]	Emax [5]: < 100%; Maximum % activity (with co-corrector) [6]: + (<150)
1 to 10	1 to 10	+++ (≥350)	100 to 200	COc1ccc(C(C)(C)C)cc1CN[C@H]1[C@H](C(C)(C)C)[C@@H](C(=O)O)N(C(=O)OC2COC2)[C@H]1c1ccccc1 [Example I-244, (2S,3S,4S,5S)-3-tert-butyl-4-{[(5-tert-butyl-2-methoxyphenyl)methyl]amino}-1-{[(oxetan-3-yl)oxy]carbonyl}-5-phenylpyrrolidine-2-carboxylic acid]	
1 to 10	< 1			COc1nc2ccccc2cc1CN[C@H]1[C@H](C(C)(C)C)[C@@H](C(=O)O)N(C(=O)OC(C)C)[C@H]1c1ccccc1C [II-579]	Emax [5]: > 200%; Maximum % activity (with co-corrector) [6]: +++ (≥350)
1 to 10	1 to 10			COc1nc(C(C)(C)C)ccc1CN[C@H]1[C@H](C(C)(C)C)[C@@H](C(=O)O)N(C(=O)C2CCC(C)(C)C2)[C@H]1c1ccccc1 (stereo partly shown) [II-428]	Emax [5]: 100 to 200%; Maximum % activity (with co-corrector) [6]: +++ (≥350)
< 1	< 1	+++ (≥350)	100 to 200	COc1ncc(C(F)(F)F)cc1CN[C@H]1[C@H](C(C)(C)C)[C@@H](C(=O)O)N(C(=O)C2CCCCC2)[C@H]1c1cccc2c1OC(C)(C)C2 [Example 118, (2S,3S,4S,5S)-3-tert-butyl-1-(cyclohexanecarbonyl)-5-(2,2-dimethyl-2,3-dihydro-1-benzofuran-7-yl)-4-({[2-methoxy-5-(trifluoromethyl)pyridin-3-yl]methyl}amino)pyrrolidine-2-carboxylic acid]	
1 to 10	< 1	+++ (≥350)	> 200	COc1cc(C(F)(F)F)ccc1CN[C@H]1[C@H](C(C)(C)C)[C@@H](C(=O)O)N(C(=O)[C@@H]2CCCC(F)(F)C2)[C@H]1c1ccccc1 [Example 75, (2S,3S,4S,5S)-3-tert-butyl-1-[(1R)-3,3-difluorocyclohexane-1-carbonyl]-4-({[2-methoxy-4-(trifluoromethyl)phenyl]methyl}amino)-5-phenylpyrrolidine-2-carboxylic acid]	
				COc1ccc(C(C)(C)C)cc1CN[C@H]1[C@H](C(C)(C)C)[C@@H](C(=O)O)N(C(=O)c2cc(-c3ccccc3)n(C)n2)[C@H]1c1ccccc1 [II-227]	EC50 [7]: 1 to 10 µM; EC50 [8]: < 1 µM; Maximum % activity (with co-corrector) [9]: +++ (≥350); Emax [10]: > 200%
				COc1ccc(C(C)(C)C)cc1CN[C@H]1[C@H](C(C)(C)C)[C@@H](C(=O)O)N(C(=O)C(OC)C(C)(C)C)[C@H]1c1ccccc1 (relative stereo) [II-297]	EC50 [7]: 1 to 10 µM; EC50 [8]: 1 to 10 µM; Maximum % activity (with co-corrector) [9]: +++ (≥350); Emax [10]: < 100%
< 1	< 1	+++ (≥350)	> 200	COc1ncc(C2CCC2)cc1CN[C@H]1[C@H](C(C)(C)C)[C@@H](C(=O)O)N(C(=O)C2CCCCC2)[C@H]1c1ccccc1C [Example 92, (2S,3S,4S,5S)-3-tert-butyl-4-{[(5-cyclobutyl-2-methoxypyridin-3-yl)methyl]amino}-1-(cyclohexanecarbonyl)-5-(2-methylphenyl)pyrrolidine-2-carboxylic acid]	
1 to 10	1 to 10			Cc1cc(C(F)(F)F)cc(N[C@@H]2[C@@H](C(C)(C)C)[C@H](C(=O)NS(=O)(=O)N(C)C)N(C(=O)C3CCCCC3)[C@@H]2c2ccccc2)n1 (racemic) [III-54]	Emax [5]: < 100%; Maximum % activity (with co-corrector) [6]: ++ (≥150 and <350)
1 to 10	1 to 10	++ (≥150 and <350)	< 100	COc1cnc(N2CCCC2)cc1CN[C@H]1[C@H](C(C)(C)C)[C@@H](C(=O)O)N(C(=O)C2CCCCC2)[C@H]1c1ccccc1 [Example I-212]	
< 1	< 1		< 100	COc1ccc(C2(C(F)(F)F)CC2)cc1CN[C@H]1[C@H](C(C)(C)C)[C@@H](C(=O)O)N(C(=O)C2Cc3ccccc3O2)[C@H]1c1cccnc1N(C)C (single isomer, unassigned) [Example I-175]	Maximum % activity (with co-corrector) (with co-corrector (2 μM), maximum at any tested concentration, normalized to on-plate positive control, 2 µM): +++ (≥350)
1 to 10	1 to 10	+++ (≥350)	> 200	COc1ccc(C(C)(C)C)cc1CN[C@H]1[C@H](C(C)(C)OC)[C@@H](C(=O)O)N(C(=O)OC(C)C)[C@H]1c1cccnc1N(C)C [Example I-220]	
				COc1ccc(-c2ccco2)cc1CN[C@H]1[C@H](C(C)(C)C)[C@@H](C(=O)O)N(C(=O)C2CCCCC2)[C@H]1c1ccccc1 [II-291]	EC50 [7]: 1 to 10 µM; EC50 [8]: 1 to 10 µM; Maximum % activity (with co-corrector) [9]: +++ (≥350); Emax [10]: > 200%
